Measured values: patent publication US11225653B2, “Methods and compounds for reducing threonyl-tRNA synthetase activity” (University of Vermont and State Agricultural College, priority 2012, dated 2022)
Entries after “also recorded” stand apart in the source; their conditions may differ.

Columns and labels:
[1] = test system: chorioallantoic membrane (CAM); experiment: Chick chorioallantoic membrane (CAM) assay; type: in vivo, chicken; conditions: purified protein applied daily to sponge, scored over 72 h
Procedure: Chick Chorioallantoic Membrane Assay-Fertilized chicken eggs (Sunrise Farms, Catskill, N.Y.) day 1-2 post-laying were incubated in a humidified incubator at 37° C. for 72 h. Cleaned eggs were cracked and plated in a sterile 10 cm^2 tissue culture-treated dish and incubated at 37° C. for another 7 days. On developmental day 10, 1 mm^3 sterile gelatin sponge pieces (Surgifoam®; Johnson & Johnson Wound Management, Somerville, N.J.) were placed within the outer one-third of the membrane between large vessels. 40 μg/ml human bFGF and 2 μg/mL human VEGF were used as pro-angiogenic control compounds; 100 μg/mL retinoic acid (Sigma-Aldrich, St. Louis, Mo.) diluted in phosphate-buffered saline (PBS) was used as an angiostatic control. All compounds were applied in 10 μl to the CAM every 24 h for 72 h. Images were taken using a Leica MZ6 stereomicroscope every 24 h. Compounds were scored according to a modified version of Intensity Scoring as previously described (Ribatti, Nico et al. 2006). Briefly, each experimental condition was given a blinded score from 0-5 based on the change in the extent of vessel convergence and formation in proximity to the sponge from day 0 to day 3. Total score is averaged individual experimental condition scores from at least 15 replicates.
Fertilized chicken embryos were cultured ex-ova and, starting at developmental day 10, agents were applied daily to gelfoam sponges on the CAM. Images were recorded daily over 72 h and scored blindly according to a modified version Intensity Scoring as previously described (Ribatti, Nico et al. 2006). Additional details regarding methods are provided in the Methods and Materials section of Example 1.

[2] = molecular target: T1, human LARS (Homo sapiens, UniProt Q9P2J5); experiment: LARS steady state ATPase activity; type: biochemical; conditions: 1 μM human LARS
T1 construct: His6 (N); made in house; host or cells: E. coli, plasmid pPROEX hTb-LARS
T1 sequence (Q9P2J5 whole entry): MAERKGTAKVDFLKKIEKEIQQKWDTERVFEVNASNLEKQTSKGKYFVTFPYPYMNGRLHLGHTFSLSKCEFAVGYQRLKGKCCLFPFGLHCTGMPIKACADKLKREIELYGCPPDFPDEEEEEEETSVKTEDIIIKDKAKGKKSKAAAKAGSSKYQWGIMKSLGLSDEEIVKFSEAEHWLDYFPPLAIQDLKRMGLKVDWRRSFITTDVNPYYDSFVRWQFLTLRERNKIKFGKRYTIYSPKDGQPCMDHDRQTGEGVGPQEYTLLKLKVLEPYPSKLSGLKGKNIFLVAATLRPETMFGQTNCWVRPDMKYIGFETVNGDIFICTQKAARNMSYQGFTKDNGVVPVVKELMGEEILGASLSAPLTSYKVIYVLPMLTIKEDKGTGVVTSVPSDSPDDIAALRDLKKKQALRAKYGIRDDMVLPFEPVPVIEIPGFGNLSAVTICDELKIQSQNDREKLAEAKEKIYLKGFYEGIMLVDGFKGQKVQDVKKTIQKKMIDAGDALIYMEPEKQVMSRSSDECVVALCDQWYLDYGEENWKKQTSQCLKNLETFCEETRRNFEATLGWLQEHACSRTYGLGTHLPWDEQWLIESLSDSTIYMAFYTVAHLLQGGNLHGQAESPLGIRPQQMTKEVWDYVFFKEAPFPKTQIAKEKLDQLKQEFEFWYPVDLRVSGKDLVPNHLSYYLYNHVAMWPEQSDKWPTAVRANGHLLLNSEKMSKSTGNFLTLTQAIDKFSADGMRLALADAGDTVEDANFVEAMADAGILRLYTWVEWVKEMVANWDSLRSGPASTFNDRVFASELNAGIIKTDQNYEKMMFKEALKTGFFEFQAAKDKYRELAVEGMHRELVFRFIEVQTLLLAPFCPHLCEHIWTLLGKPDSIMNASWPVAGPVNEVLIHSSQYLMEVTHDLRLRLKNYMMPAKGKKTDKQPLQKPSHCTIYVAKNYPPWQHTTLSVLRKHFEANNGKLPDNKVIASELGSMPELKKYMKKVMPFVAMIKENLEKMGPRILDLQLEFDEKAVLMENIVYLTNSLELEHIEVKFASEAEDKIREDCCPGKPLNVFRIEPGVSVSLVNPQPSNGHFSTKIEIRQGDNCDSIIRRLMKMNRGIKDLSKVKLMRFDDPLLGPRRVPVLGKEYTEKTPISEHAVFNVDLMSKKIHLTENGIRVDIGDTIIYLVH
Procedure: LARS steady state ATPase activity was determined using the same procedure as for TARS aminoacylation with the following modifications. […] ATP (PerkinElmer, Waltham, Mass.) was added. Reactions were incubated for 3 minutes at 37° C. and initiated with the addition of 1 μM human LARS. At various time points 5 μl aliquots were quenched in 45 μl of 500 mM sodium acetate and 0.1% sodium dodecyl sulfate. For each sample, 1 μl was spotted onto a CCM cellulose PEI F plates (EMD) and resolved via thin-layer chromatography in 0.75 M potassium phosphate buffer mobile phase.

LARS: N-terminal His6-tagged human leucyl tRNA synthetase
vessel formation / vascularization on the CAM after applied protein [1]: no observable effect on vascularization; also recorded: has no effect on angiogenesis | enzyme activity as conversion of 32P-ATP to AMP [2]: exhibits enzyme activity
